Measurements taken from patent US20240207421A1, “NERVE TARGETING PEPTIDES AND METHODS OF USE” (ALUME BIOSCIENCES, INC., priority 2020, published 2024).

These substances were tested on Human MPZ (assay: Phage display library screening (Example 2, Python script analysis), binding to Human MPZ). Conditions: combined unique sequence count, Python/R script analysis.
Sequence of Human MPZ (P25189 30-153 limits assumed): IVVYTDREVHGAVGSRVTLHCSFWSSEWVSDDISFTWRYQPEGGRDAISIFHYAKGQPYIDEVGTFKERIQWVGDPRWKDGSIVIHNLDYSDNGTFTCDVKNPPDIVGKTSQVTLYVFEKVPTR
Method: (§1) Phage display library screens were used to identify peptides that bind to target proteins (including specific laminin trimers) that are expressed in human nerves, as described in Table 3. These screens were also carried out to identify peptides that could bind selectively to nerves versus muscle. Such peptides could therefore be useful for systemic in-vivo labeling of nerves during fluorescence assisted surgery. Specifically, m 13 phage libraries expressing 7 or 12 random amino acid peptides, or a cyclic peptide CX7C, on the N-terminus of the minor coat protein pIII (New England Biolabs; NEB) were processed through multiple rounds of selection for binding to target proteins expressed in nerves, or to excised human nerves, nerve extracts, or muscle, as described further below.
(§2) For screening against the specified target proteins in Table 1, including LN211, LN411, LN421, and LN521, the phage library was processed by up to 4 binding and wash cycles. For selection, phage libraries were incubated for up to 24 hours at 4° C. in 96 well plates that had been coated with one of the target proteins. Plates were then washed with PBS and phage were eluted using 0.2M glycine pH 2.0. Phage supernatants where then neutralized with Tris pH 9.0 prior to plating on TGI bacteria and LB agar plates. Colonies were counted to determine titer followed by DNA preparation of pools of phage and NextGen sequencing. After rounds of selection, phage were pooled and amplified for iterative selection. Phage that were bound at each round were sequenced. NextGen sequencing of pools after 2, 3 and 4 rounds of selection was used to isolate candidate sequences that were analyzed further to identify those that specifically bound each unique target protein.
(§3) Python Script Analysis: For all NEB sequence datasets, a python script was used to translate, trim, and filter the peptide sequences. The script translated the nucleotide sequences, translating amber codons as glutamine in peptide sequences, and then trimmed the end sequences that come from the vector. Secondly, the script combined the unique counts of trimmed peptides with identical sequences. […] Another python script was used to group peptides from different assays according to protein target (Myelin Protein Zero, Myelin Proteolipid Protein, Myelin Basic Protein, and Nidogen-2) and also combine the unique sequence counts for each peptide. An R script was written to merge the peptide sequences from different data files and determine peptides specific for each protein target but absent from different protein binding datasets. Peptide sequences were ranked by unique sequence count.
Substance FMSDVDH (Human MPZ-binding peptide) has a Count of 37. In the case of HPFPRFD (Human MPZ-binding peptide), the Count is reported as 45. Work on YEGERGA (Human MPZ-binding peptide) yielded a Count of 39. THSTDLS (Human MPZ-binding peptide) gave a Count of 37. Work on SNALSYF (Human MPZ-binding peptide) yielded a Count of 41. FRVTQTA (Human MPZ-binding peptide) gave a Count of 41. In the case of VPLAYLR (Human MPZ-binding peptide), the Count is reported as 40. Substance FEHMAVT (Human MPZ-binding peptide) has a Count of 42. Substance YGQSITE (Human MPZ-binding peptide) has a Count of 37. Work on AWTMRAS (Human MPZ-binding peptide) yielded a Count of 39. With HLDSRRH (Human MPZ-binding peptide) the Count was 46. Substance FSTTGRG (Human MPZ-binding peptide) has a Count of 39. Substance MYHDSVS (Human MPZ-binding peptide) has a Count of 47. SGHGAFR (Human MPZ-binding peptide) gave a Count of 42. With VHTPYRS (Human MPZ-binding peptide) the Count was 41. In the case of GPVVSGM (Human MPZ-binding peptide), the Count is reported as 46. With CEDRQRSMC (Human MPZ-binding peptide) the Count was 40. LVLQTTP (Human MPZ-binding peptide) was tested, and the Count was 37. LWAKRDA (Human MPZ-binding peptide) gave a Count of 38. With CDIKDANSC (Human MPZ-binding peptide) the Count was 38. In the case of CYSSVADMC (Human MPZ-binding peptide), the Count is reported as 43. With WTSVATA (Human MPZ-binding peptide) the Count was 41. LISPTAR (Human MPZ-binding peptide) gave a Count of 37. GLWRHTM (Human MPZ-binding peptide) gave a Count of 40. FALPAGL (Human MPZ-binding peptide) showed a Count of 41. NPTSEGA (Human MPZ-binding peptide) was tested, and the Count was 37. With DRYLLNQ (Human MPZ-binding peptide) the Count was 40. VVPLKWI (Human MPZ-binding peptide) gave a Count of 40. For FPSYTIS (Human MPZ-binding peptide), the Count was 40. For KLPTLSV (Human MPZ-binding peptide), the Count was 44. With SYLPPFI (Human MPZ-binding peptide) the Count was 41. HNQLLYT (Human MPZ-binding peptide) was tested, and the Count was 38. FSPRDVS (Human MPZ-binding peptide) was tested, and the Count was 39. LSPPRIM (Human MPZ-binding peptide) gave a Count of 43. CSNALNKAC (Human MPZ-binding peptide) gave a Count of 39. “AYLEDWRSMSTR (Human MPZ-binding peptide)” gave a Count of 46. For ALPISYL (Human MPZ-binding peptide), the Count was 42. With SPNTNSH (Human MPZ-binding peptide) the Count was 40. In the case of “EGHVWSEYTWGT (Human MPZ-binding peptide)”, the Count is reported as 37. SAHSVVE (Human MPZ-binding peptide) was tested, and the Count was 38. GGSKVWG (Human MPZ-binding peptide) was tested, and the Count was 40. Work on AMSNLSY (Human MPZ-binding peptide) yielded a Count of 45. SETESYM (Human MPZ-binding peptide) was tested, and the Count was 41. LVLSNPR (Human MPZ-binding peptide) was tested, and the Count was 46. NMSHSNR (Human MPZ-binding peptide) gave a Count of 46. Work on TLLHYSA (Human MPZ-binding peptide) yielded a Count of 40. In the case of “ADNVLRRALENI (Human MPZ-binding peptide)”, the Count is reported as 49. Substance CGEKIMSLC (Human MPZ-binding peptide) has a Count of 40.

These substances were tested on Laminin 421/521 (assay: Phage display library screening (Example 2), NEB laminin-binding peptides). Conditions: Laminin 421/521, not 211 and 411; combined unique sequence count, Python/R script analysis.
Set-up: species or system human
Procedure, shortened: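 M13 phage libraries (7- or 12-mer random or cyclic CX7C peptides on pIII) panned up to 4 rounds against plate-coated laminins LN211, LN411, LN421, LN521, 24 h at 4 °C; elution with 0.2M glycine pH 2.0. NextGen sequencing of pools after rounds 2–4; peptides binding 421/521 but not 211/411 identified.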
In the case of “EGHVWSEYTWGT (Human MPZ-binding peptide)”, the Count is reported as 50.

What follows are substances tested on Human Myelin PLP (assay: Phage display library screening (Example 2, Python script analysis), binding to Human Myelin PLP). Conditions: combined unique sequence count, Python/R script analysis.
Method: as §1, §2, §3
LNGISAL (Myelin PLP-binding peptide) showed a Count of 32. Work on MPHAPVQ (Myelin PLP-binding peptide) yielded a Count of 37. LPVKNLL (Myelin PLP-binding peptide) showed a Count of 26. Work on WSPHRSF (Myelin PLP-binding peptide) yielded a Count of 31. In the case of SWDVLEL (Myelin PLP-binding peptide), the Count is reported as 31. LPSHASI (Myelin PLP-binding peptide) was tested, and the Count was 26. WHYTPSM (Myelin PLP-binding peptide) gave a Count of 26. YSQAISA (Myelin PLP-binding peptide) showed a Count of 27. NVFSATP (Myelin PLP-binding peptide) was tested, and the Count was 31. Work on TFPERLR (Myelin PLP-binding peptide) yielded a Count of 31. For DGSRDLV (Myelin PLP-binding peptide), the Count was 30. TKITPHR (Myelin PLP-binding peptide) gave a Count of 29. WSPHGYK (Myelin PLP-binding peptide) gave a Count of 27. In the case of VSSQEQA (Myelin PLP-binding peptide), the Count is reported as 34. Work on VFPERRV (Myelin PLP-binding peptide) yielded a Count of 28. SLPGYRH (Myelin PLP-binding peptide) showed a Count of 28. For EVLYPNN (Myelin PLP-binding peptide), the Count was 27. SLNRGGA (Myelin PLP-binding peptide) was tested, and the Count was 28. With VRTSMNH (Myelin PLP-binding peptide) the Count was 28. HLHTRPT (Myelin PLP-binding peptide) was tested, and the Count was 27. TDVEMVP (Myelin PLP-binding peptide) showed a Count of 40. RLQPEPT (Myelin PLP-binding peptide) showed a Count of 33. Work on AQASSAR (Myelin PLP-binding peptide) yielded a Count of 27. Substance IIPPTSV (Myelin PLP-binding peptide) has a Count of 31. For GWSTAIR (Myelin PLP-binding peptide), the Count was 29. Work on SGLHYAL (Myelin PLP-binding peptide) yielded a Count of 32. In the case of SLPSLLP (Myelin PLP-binding peptide), the Count is reported as 26. LHQTYRP (Myelin PLP-binding peptide) was tested, and the Count was 27. Substance KGVIPAT (Myelin PLP-binding peptide) has a Count of 27. With SVVYQNS (Myelin PLP-binding peptide) the Count was 26. Work on IHHLESS (Myelin PLP-binding peptide) yielded a Count of 32. Substance ASLTLAL (Myelin PLP-binding peptide) has a Count of 26. Work on VTGPGTP (Myelin PLP-binding peptide) yielded a Count of 26. GNVFQTS (Myelin PLP-binding peptide) showed a Count of 31. TMPIKAM (Myelin PLP-binding peptide) showed a Count of 27. AHQSSVT (Myelin PLP-binding peptide) was tested, and the Count was 42. For VSASWMP (Myelin PLP-binding peptide), the Count was 27. VTPNKAR (Myelin PLP-binding peptide) showed a Count of 26. QRRSVIL (Myelin PLP-binding peptide) gave a Count of 31. SVEKYSK (Myelin PLP-binding peptide) gave a Count of 33. For AVVAMNK (Myelin PLP-binding peptide), the Count was 28. With GSAWKKH (Myelin PLP-binding peptide) the Count was 44. NDASTVS (Myelin PLP-binding peptide) showed a Count of 28. SGVATYT (Myelin PLP-binding peptide) showed a Count of 31. Substance DRHEGHR (Myelin PLP-binding peptide) has a Count of 26. Substance TQPRYPS (Myelin PLP-binding peptide) has a Count of 28. In the case of QLPRNNL (Myelin PLP-binding peptide), the Count is reported as 28. With ALFQERK (Myelin PLP-binding peptide) the Count was 27. For ARFVPLT (Myelin PLP-binding peptide), the Count was 30. For FSLDRDG (Myelin PLP-binding peptide), the Count was 29. With GHLQSLF (Myelin PLP-binding peptide) the Count was 26. Substance VGYRSAS (Myelin PLP-binding peptide) has a Count of 28. With NIPSSIL (Myelin PLP-binding peptide) the Count was 33. LPHRLNP (Myelin PLP-binding peptide) gave a Count of 27. FSTPTNV (Myelin PLP-binding peptide) gave a Count of 29. IRPTHNG (Myelin PLP-binding peptide) showed a Count of 27.
